The text below walks through data of BindingDB's records for doi:10.1016/s0960-894x(01)00039-7 (Glaxosmithkline, 2001).

This test deals with Tyrosine--tRNA ligase (Staphylococcus aureus). Description: Inhibitory activity against Staphylococcus aureus tyrosyl tRNA synthetase (YRS) using aminoacylation assay.

What is called IC50 is the concentration that gives 50% inhibition. Turning to `N[C@@H](Cc1ccc(O)cc1)C(=O)N[C@@H](C(=O)O)[C@@H]1OC[C@H](O)[C@H](O)[C@H]1O` [[2-Amino-3-((S)-4-hydroxy-phenyl)-propionylamino]-((2S,3R,4S,5S)-3,4,5-trihydroxy-tetrahydro-pyran-2-yl)-acetic acid], the IC50 amounted to 260 nM.
